Each structure is given as a SMILES string. Read-outs that look alike come from different tables or passages of the source. Bounds are passed on as bounds.

The test system of series [1] is maximal electroshock-induced seizures. The series can be described thus: Maximal electroshock-induced seizures (MES). The class given is in vivo, mice. Particulars: for ED50: Mus musculus, mice, tonic hindlimb extensor response, corneal electrodes 50 mA; for activity against maximal electroshock (MES): statement in words, refers to Table 3. Here is the method:
Maximal Electroshock-induced Seizures
Seizures were induced by application of current (50 mA, 60 pulses/sec, 0.8 sec pulse width, 1 sec duration, d.c.) through saline-coated corneal electrodes using a Ugo Basile ECT device (Model 7801). […] A tonic seizure was defined as a hindlimb extension in excess of 90 degrees from the plane of the body. Results were treated in a quantal manner.
(Protection in the maximal electroshock model is a classic sign of anticonvulsant action.)

The target in series [2] is NR1A/NR2A NMDA receptor (Rattus norvegicus, UniProt P35439+Q00959). The series can be described thus: Electrophysiological assay, cloned NMDA receptor subunits expressed in Xenopus oocytes (1A/2A). The class given is cell-based. The source says: (§1) Electrophysiological Assays at NMDA Receptor Subunits
NR1A/NR2A NMDA receptor, sequence (Q00959 20-1464 limits assumed, other chains not shown): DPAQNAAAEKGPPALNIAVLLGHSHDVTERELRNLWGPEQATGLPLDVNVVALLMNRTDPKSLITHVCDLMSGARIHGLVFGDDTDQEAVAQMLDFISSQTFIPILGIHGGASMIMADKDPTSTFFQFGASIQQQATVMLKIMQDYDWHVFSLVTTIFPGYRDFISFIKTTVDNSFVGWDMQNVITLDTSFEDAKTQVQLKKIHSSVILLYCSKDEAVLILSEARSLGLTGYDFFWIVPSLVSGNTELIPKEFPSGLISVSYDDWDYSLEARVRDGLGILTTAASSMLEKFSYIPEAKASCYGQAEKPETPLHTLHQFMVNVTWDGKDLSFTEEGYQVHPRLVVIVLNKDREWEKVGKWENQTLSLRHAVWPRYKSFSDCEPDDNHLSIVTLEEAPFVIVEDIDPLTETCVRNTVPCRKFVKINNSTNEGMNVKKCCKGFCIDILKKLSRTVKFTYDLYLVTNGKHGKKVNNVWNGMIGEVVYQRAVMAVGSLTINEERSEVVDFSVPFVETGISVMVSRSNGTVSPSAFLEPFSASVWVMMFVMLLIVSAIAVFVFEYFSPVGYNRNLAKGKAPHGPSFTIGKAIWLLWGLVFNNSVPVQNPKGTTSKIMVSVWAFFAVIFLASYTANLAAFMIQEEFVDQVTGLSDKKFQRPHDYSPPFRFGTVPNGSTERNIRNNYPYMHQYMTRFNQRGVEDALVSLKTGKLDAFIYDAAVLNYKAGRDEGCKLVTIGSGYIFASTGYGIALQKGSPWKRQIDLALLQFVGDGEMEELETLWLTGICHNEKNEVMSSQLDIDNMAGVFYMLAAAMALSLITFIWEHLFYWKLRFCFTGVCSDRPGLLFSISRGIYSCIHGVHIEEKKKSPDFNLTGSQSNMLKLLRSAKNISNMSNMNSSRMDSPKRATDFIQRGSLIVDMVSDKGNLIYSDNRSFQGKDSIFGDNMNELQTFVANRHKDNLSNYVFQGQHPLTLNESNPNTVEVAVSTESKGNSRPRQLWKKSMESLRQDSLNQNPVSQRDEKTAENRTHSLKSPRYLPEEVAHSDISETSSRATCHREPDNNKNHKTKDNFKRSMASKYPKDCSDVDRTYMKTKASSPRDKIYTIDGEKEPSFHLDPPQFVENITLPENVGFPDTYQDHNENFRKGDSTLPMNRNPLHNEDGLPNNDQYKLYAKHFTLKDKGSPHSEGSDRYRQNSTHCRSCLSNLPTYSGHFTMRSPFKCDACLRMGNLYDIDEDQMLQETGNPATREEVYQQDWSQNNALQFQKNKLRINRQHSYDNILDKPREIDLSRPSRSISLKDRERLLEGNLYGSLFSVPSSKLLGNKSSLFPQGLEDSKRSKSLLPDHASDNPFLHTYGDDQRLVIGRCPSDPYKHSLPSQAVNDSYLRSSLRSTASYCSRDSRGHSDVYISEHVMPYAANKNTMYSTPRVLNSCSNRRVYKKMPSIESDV
(§2) cDNA clones encoding the NR1A, NR2A, NR2B, NR2C and NR2D rat NMDA receptor subtypes were provided by Dr. P. H. Seeburg (see, Moriyoshi et al., Nature (Lond.) 354:31-37 (1991); Kutsuwada et al., Nature (Lond.) 358:36-41 (1992) Monyer et al., Science (Washington, D.C.) 256:1217-1221 (1992); Ikeda et al., FEBS Lett. 313:34-38 (1992); Ishii et al., J. Biol. Chem. 268:2836-2843 (1993) for details of these clones or their mouse homologs). The clones were transformed into appropriate host bacteria and plasmid preparations were made with conventional DNA purification techniques. […]
(§3) Electrical recordings were made using a conventional two-electrode voltage clamp (Dagan TEV-200) over periods ranging between 3-21 days following injection. […] Inhibitory potency of the novel antagonists was assessed on responses elicited by fixed concentrations of glutamate and glycine, by measuring reductions in current induced by progressively increasing concentrations of antagonist. […]
(§4) in which Icontrol is the current evoked by agonists alone, pIC50=−log IC50, IC50 is the concentration of antagonist that produces half maximal inhibition, and n is the slope factor. […] For incomplete curves analysis by fitting was unreliable and IC50 values were calculated by simple regression over linear portions of the curves (Origin: Microcal Software).

For series [3], the target named is NR1A/NR2B NMDA receptor (Rattus norvegicus, UniProt P35439+Q00960). The series can be described thus: Electrophysiological assay, cloned NMDA receptor subunits expressed in Xenopus oocytes (1A/2B). The class given is cell-based.
NR1A/NR2B NMDA receptor, sequence (Q00960 27-1482, other chains not shown): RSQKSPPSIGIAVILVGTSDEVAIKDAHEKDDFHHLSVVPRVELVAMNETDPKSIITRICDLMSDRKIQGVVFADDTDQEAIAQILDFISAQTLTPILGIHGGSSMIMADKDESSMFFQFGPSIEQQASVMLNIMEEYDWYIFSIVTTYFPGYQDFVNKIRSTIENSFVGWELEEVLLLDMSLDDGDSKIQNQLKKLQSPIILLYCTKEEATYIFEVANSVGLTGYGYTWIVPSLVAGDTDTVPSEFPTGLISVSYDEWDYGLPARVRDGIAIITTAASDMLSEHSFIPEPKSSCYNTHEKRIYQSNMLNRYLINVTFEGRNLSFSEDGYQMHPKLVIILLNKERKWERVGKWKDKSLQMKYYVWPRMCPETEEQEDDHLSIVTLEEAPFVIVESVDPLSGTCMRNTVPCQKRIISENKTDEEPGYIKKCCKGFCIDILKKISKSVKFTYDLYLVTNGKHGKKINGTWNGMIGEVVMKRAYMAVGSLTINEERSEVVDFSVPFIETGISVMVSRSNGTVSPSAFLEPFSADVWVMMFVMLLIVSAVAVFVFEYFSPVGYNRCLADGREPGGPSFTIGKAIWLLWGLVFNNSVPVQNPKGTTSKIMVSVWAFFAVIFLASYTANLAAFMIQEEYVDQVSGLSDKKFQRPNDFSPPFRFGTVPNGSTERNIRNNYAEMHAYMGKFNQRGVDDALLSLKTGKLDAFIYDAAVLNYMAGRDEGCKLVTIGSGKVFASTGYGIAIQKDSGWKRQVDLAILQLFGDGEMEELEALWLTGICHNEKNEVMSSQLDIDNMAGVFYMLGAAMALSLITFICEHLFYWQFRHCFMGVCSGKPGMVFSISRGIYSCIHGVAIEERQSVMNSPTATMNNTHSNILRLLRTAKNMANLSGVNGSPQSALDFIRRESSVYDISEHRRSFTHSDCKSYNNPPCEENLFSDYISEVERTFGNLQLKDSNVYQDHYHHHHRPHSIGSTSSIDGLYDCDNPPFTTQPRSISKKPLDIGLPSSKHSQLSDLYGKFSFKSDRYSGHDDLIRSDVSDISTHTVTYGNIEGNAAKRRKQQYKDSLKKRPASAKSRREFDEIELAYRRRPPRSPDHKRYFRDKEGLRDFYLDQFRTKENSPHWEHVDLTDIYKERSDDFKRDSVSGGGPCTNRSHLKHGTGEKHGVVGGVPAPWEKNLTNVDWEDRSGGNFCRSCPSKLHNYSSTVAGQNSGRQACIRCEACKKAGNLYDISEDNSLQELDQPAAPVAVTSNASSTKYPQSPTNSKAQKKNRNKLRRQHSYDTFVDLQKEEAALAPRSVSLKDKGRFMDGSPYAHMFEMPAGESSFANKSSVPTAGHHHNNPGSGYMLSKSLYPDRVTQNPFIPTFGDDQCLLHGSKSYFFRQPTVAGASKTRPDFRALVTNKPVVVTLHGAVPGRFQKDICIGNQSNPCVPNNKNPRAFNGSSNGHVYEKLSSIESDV
Text: as §1
cDNA clones encoding the NR1A, NR2A, NR2B, NR2C and NR2D rat NMDA receptor subtypes were provided by Dr. P. H. Seeburg (see, Moriyoshi et al., Nature (Lond.) 354:31-37 (1991); Kutsuwada et al., Nature (Lond.) 358:36-41 (1992) Monyer et al., Science (Washington, D.C.) 256:1217-1221 (1992); Ikeda et al., FEBS Lett. 313:34-38 (1992); Ishii et al., J. Biol. Chem. 268:2836-2843 (1993) for details of these clones or their mouse homologs). The clones were transformed into appropriate host bacteria and plasmid preparations were made with conventional DNA purification techniques. A sample of each clone was linearized by restriction enzyme digestion and cRNA was synthesized with T3 RNA polymerase. The CRNA was diluted to 400 ng/μl and stored in 1 μl aliquots at −80° C. until injection.
Mature female Xenopus laevis were anaesthetized (20-40 min) using 0.15% 3-aminobenzoic acid ethyl ester (MS-222) and 2-4 ovarian lobes were surgically removed. Oocytes at developmental stages IV-VI (Dumont, J. N., J. Morphol. 136:153-180 (1972)), were dissected from the ovary still surrounded by enveloping ovarian tissues. Follicle-enclosed oocytes were micro-injected with 1:1 mixtures of cRNA:NR1A+NR2A, 2B, 2C or 2D; injecting ˜2,5, or 20 ng of RNA encoding each receptor subunit. […]
as §3, §4

The target of series [4] is NR1A/NR2C NMDA receptor (Rattus norvegicus, UniProt P35439+Q00961). The series can be described thus: Electrophysiological assay, cloned NMDA receptor subunits expressed in Xenopus oocytes (1A/2C). In kind it is cell-based. The settings on record: read-out: Subunits (IC50 (μM)) 1A/2C, mean IC50, inhibition of NMDA-activated membrane current responses, glutamate 100 μM + glycine.
NR1A/NR2C NMDA receptor, sequence (Q00961 20-1237, other chains not shown): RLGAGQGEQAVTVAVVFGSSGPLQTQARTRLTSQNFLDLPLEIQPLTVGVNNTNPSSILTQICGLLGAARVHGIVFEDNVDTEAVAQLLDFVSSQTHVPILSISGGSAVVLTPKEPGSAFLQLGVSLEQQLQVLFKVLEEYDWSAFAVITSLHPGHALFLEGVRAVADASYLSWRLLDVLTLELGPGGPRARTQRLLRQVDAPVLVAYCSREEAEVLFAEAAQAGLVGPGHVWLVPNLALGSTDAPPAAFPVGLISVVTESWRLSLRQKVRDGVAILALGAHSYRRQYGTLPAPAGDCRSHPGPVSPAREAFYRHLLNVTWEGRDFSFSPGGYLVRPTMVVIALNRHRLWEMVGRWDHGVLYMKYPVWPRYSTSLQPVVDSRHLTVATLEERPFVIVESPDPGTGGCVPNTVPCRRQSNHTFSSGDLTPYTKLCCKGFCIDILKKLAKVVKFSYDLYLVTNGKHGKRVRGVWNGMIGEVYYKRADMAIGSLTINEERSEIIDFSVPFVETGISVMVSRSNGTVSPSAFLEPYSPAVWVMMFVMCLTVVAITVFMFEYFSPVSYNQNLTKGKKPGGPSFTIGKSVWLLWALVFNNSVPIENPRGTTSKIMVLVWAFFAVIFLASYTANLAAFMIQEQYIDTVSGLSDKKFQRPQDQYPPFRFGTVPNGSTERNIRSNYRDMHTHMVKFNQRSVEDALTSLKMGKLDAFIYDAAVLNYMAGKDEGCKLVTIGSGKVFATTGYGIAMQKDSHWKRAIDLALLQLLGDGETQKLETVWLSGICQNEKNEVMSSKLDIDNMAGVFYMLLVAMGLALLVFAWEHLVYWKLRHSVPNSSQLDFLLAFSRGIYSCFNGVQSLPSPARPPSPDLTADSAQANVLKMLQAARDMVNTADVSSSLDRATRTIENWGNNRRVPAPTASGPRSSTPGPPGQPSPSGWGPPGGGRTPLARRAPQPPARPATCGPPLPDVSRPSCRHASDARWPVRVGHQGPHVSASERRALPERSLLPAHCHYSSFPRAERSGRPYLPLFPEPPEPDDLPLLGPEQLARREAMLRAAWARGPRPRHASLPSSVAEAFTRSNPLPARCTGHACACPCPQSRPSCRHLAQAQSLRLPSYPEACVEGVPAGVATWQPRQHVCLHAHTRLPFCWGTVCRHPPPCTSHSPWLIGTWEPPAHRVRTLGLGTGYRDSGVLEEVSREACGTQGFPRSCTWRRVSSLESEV
Text: as §1, §2, §3, §4

The target of series [5] is NR1A/NR2D NMDA receptor (Rattus norvegicus, UniProt P35439+Q62645). The series can be described thus: Electrophysiological assay, cloned NMDA receptor subunits expressed in Xenopus oocytes (1A/2D). In kind it is cell-based. Particulars: read-out: Subunits (IC50 (μM)) 1A/2D, mean IC50, inhibition of NMDA-activated membrane current responses, glutamate 100 μM + glycine.
Text: as §1, §2, §3, §4

[6] abbreviates: mean IC50, inhibition of NMDA-activated membrane current responses, glutamate 100 μM + glycine, read-out: Subunits (IC50 (μM)) 1A/2B.

With `Nc1cccc(C#CCCN2CCC(O)(c3ccc(Cl)cc3)CC2)c1` [Ex. 8, 1-[4-(3-Aminophenyl)-3-butynyl]-4-hydroxy-4-(4-chlorophenyl)piperidine], in series [1], the 50% effect level (ED50) was put at a dose of 10 mg/kg and the “activity against maximal electroshock (MES)” value (“activity” below) was “potent activity”. For `Nc1cccc(C#CCCN2CC=C(c3ccccc3)CC2)c1` [Ex. 14, 1-[4-(5-Aminophenyl)-3-butynyl]-4-phenyl-1,2,5,6-tetrahydropyridine], the IC50 in series [2] (read-out: Subunits (IC50 (μM)) 1A/2A, mean IC50, inhibition of NMDA-activated membrane current responses, glutamate 100 μM + glycine) is 40 µM; in series [3] (read-out: Subunits (IC50 (μM)) 1A/2B, mean IC50, inhibition of NMDA-activated membrane current responses, glutamate 100 μM + glycine), 30 µM; in series [4], over 100 µM; in series [5], over 100 µM. For the compound `C(#Cc1ccccc1)CCN1CCC(Cc2ccccc2)CC1` [Ex. 18, 4-Benzyl-1-(4-phenyl-3-butynyl)piperidine], in series [1], the ED50 (commonly the dose that gives a 50% effect, or the effect in half of the subjects) was found to be 3.5 mg/kg and the “activity” value is “potent activity”. With `CCCCNC(=N)Nc1cccc(C#CCCN2CCC(O)(c3ccc(Cl)cc3)CC2)c1` [Ex. 28, N-n-Butyl-N′-(3-(4-(4-(4-chlorophenyl)-4-hydroxy)piperidinyl)butynyl)phenylguanidine], the melting point (usually the temperature, or range, at which the solid turns liquid) is 98 to 100 °C. For the same compound, in series [1], the ED50 was determined as 10 mg/kg and the “activity” value was “potent activity”. Consider `Nc1ccc(C#CCCN2CCC(Cc3ccccc3)CC2)cc1` [Ex. 30, 1-(4-(4-Aminophenyl)-3-butynyl)-4-benzylpiperidine], for which, in series [1], the ED50 worked out at 1.8 mg/kg and the “activity” value is reported as “potent activity”. The like results for `Cc1ccc(CC2CCN(CCC#Cc3ccc(N)cc3)CC2)cc1` [Ex. 39, 4-{4-[4-(4-Methyl-benzyl)-piperidin-1-yl]-but-1-ynyl}-phenylamine] were, in that order, 2.5 mg/kg and “potent activity”.

In the case of `O=[N+]([O-])c1ccc(C#CCCN2CCC(Cc3ccccc3)CC2)cc1` [Ex. 40, 4-Benzyl-1-[4-(4-nitro-phenyl)-but-3-ynyl]-piperidine], in series [3] (setting [6]), the IC50 stood at 5 µM. Regarding `Oc1ccc(C#CCCN2CCC(Cc3ccccc3)CC2)cc1` [Ex. 42, 4-[4-(4-Benzyl-piperidin-1-yl)-but-1-ynyl]-phenol], in series [1], the 50% effect level (ED50) was put at a dose of 2.5 mg/kg and the “activity” value is listed as “potent activity”. Regarding `NCc1cccc(C#CCCN2CCC(Cc3ccccc3)CC2)c1` [Ex. 52, 3-[4-(4-Benzyl-piperidin-1-yl)-but-1-ynyl]-benzylamine], in series [2] (mean IC50, inhibition of NMDA-activated membrane current responses, glutamate 100 μM + glycine, read-out: Subunits (IC50 (μM)) 1A/2A), the IC50 stood at 15 µM.

For the compound `CC(=O)Nc1ccc(C#CCCN2CCC(Cc3ccccc3)CC2)cc1` [Ex. 53, N-{4-[4-(4-Benzyl-piperidin-1-yl)-but-1-ynyl]-phenyl}-acetamide], in series [1], the ED50 was determined as 8 mg/kg and the “activity” value is “potent activity”.

In the case of `CNc1ccc(C#CCCN2CCC(Cc3ccccc3)CC2)cc1` [Ex. 54, {4-[4-(4-Benzyl-piperidin-1-yl)-but-1-ynyl]-phenyl}-methyl-amine], in series [1], the ED50 is 6.5 mg/kg and the “activity” value is “potent activity”. Consider `NS(=O)(=O)c1ccc(C#CCCN2CCC(Cc3ccccc3)CC2)cc1` [Ex. 59, 4-[4-(4-Benzyl-piperidin-1-yl)-but-1-ynyl]-benzenesulfonamide], for which, in series [1], the ED50 was over 5 mg/kg. In the case of `Nc1ccc(C#CCN2CCC(Cc3ccccc3)CC2)cc1` [Ex. 63, 4-[3-(4-Benzyl-piperidin-1-yl)-prop-1-ynyl]-phenylamine], the IC50 in series [3] (setting [6]) is 12 µM. Turning to `Cc1ccc(CC2CCN(CCC#Cc3ccc(O)cc3)CC2)cc1` [Ex. 67, 4-{4-[4-(4-Methyl-benzyl)-piperidin-1-yl]-but-1-ynyl}-phenol], in series [1], the ED50 is 6 mg/kg and the “activity” value was “potent activity”. In series [1], `Cc1ccc(CC2(O)CCN(CCC#Cc3ccc(N)cc3)CC2)cc1` [Ex. 77, 1-(1-(4-Aminophenyl)-1-butyn-4-yl)-4-hydroxy-4-(4-methylbenzyl)piperidine] gave an ED50 of 0.4 mg/kg.

The values are drawn from patent US6448270B1, “4-substituted piperidine analogs and their use as subtype selective NMDA receptor antagonists” (Warner-Lambert Company, priority 1995, dated 2002).
